This is an account of results in US20230083012A1, “DIHYDROPYRIMIDINE DERIVATIVES AND USES THEREOF IN THE TREATMENT OF HBV INFECTION OR OF HBV-INDUCED DISEASES” (priority 2019, published 2023).

In one data set the test system is HBV. Description: Anti-HBV activity in HepG2.2.15 cells (HBV DNA in culture medium by qPCR). Format: cell-based. The settings on record: Hepatitis B virus, HepG2.2.15, 144 h, HepG2.2.15 cells, 6 days treatment, HBV DNA in culture medium quantified by real-time PCR; read-out: EC50. An outline of the steps:
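HepG2.2.15 cells in 2% FBS medium at 37 °C were treated with compounds for 6 days, with medium and compound refreshed at day 3; 1:3 dilutions, 8 concentrations in triplicate, top 10 or 1 uM. HBV DNA in culture medium quantified by qPCR to derive EC50; CC50 from parallel plates (top 100 uM).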
(In general: Real-time PCR tracks product formation cycle by cycle.)

The nature of data set [1]: Cytotoxicity determination in HepG2.2.15 cells (CCK-8 cell viability). Format: cell-based. The settings on record: human, 6 days treatment, CCK-8 assay, highest concentration 100 uM. In outline: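 HepG2.2.15 cells seeded at 5,000 cells/well in 2% FBS medium, exposed 6 days to compounds (8-point 1:3 dilutions from 100 uM, triplicate), refreshed at day 3. Viability read by CCK-8 after 2.5 h at 37° C, absorbance 450 nm with 630 nm reference; CC50 calculated.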

pEC50: −log10 of the molar value.

One may read the pEC50 as the EC50 on a negative log10 scale, so that one unit is a factor of ten. A word on the CC50: it is the concentration giving 50% cytotoxicity. With `CCOC(=O)C1=C(CN2CC(F)(F)[C@@H]3C(=O)N(CCC(C)(C)C(=O)O)C[C@@H]32)NC(c2nccs2)=N[C@H]1c1cccc(F)c1C` (single isomer, unassigned) [Compound 193], in the data set with HBV, the pEC50 is 7.92. For the same compound, half-maximal cytotoxicity in data set [1] (CC50 at 6 days) was put at 48200 nM.

In the case of `CCOC(=O)C1=C(CN2CC(F)(F)[C@@H]3CN(S(=O)(=O)[C@H]4C[C@H](C(=O)O)C4)C[C@@H]32)NC(c2nccs2)=N[C@H]1c1cccc(F)c1C` (single isomer, unassigned) [Compound 194], in the data set with HBV, the pEC50 is 7.15. For the same compound, the CC50 at 6 days in data set [1] came to 36700 nM.

In the case of `CCOC(=O)C1=C(CN2CC(F)(F)[C@@H]3CN(C(C)(C)C(=O)O)C[C@@H]32)NC(c2nccs2)=N[C@H]1c1cccc(F)c1C` (single isomer, unassigned) [Compound 195], the pEC50 with HBV was 7.39. In addition, the CC50 at 6 days in data set [1] was determined as 96600 nM.

Regarding `CCOC(=O)C1=C(CN2CC(F)(F)[C@@H]3CN(C4(C(=O)O)CC4)C[C@@H]32)NC(c2nccs2)=N[C@H]1c1cccc(F)c1C` (single isomer, unassigned) [Compound 196], the pEC50 with HBV is 8.48. In addition, the CC50 at 6 days in data set [1] came out at 12800 nM.

With `CCOC(=O)C1=C(CN2CC(F)(F)[C@@H]3CN(C4(C(=O)O)CC4)C(=O)C32)NC(c2nccs2)=N[C@H]1c1cccc(F)c1C` (single isomer, unassigned) [Compound 197], in the data set on HBV, the pEC50 is 7.85. In data set [1], this compound displayed a CC50 at 6 days of 26000 nM.

Regarding `CCOC(=O)C1=C(CN2CC(F)(F)[C@@H]3C(=O)N(C4(C(=O)O)CC4)C[C@@H]32)NC(c2nccs2)=N[C@H]1c1cccc(F)c1C` (single isomer, unassigned) [Compound 198], the pEC50 in the data set with HBV is 7.02. The compound also showed a CC50 at 6 days in data set [1] of 99600 nM.

As for `CCOC(=O)C1=C(CN2CC(F)(F)[C@@H]3C(=O)N(CC4(C(=O)O)CCCC4)C[C@@H]32)NC(c2nccs2)=N[C@H]1c1cccc(F)c1C` (single isomer, unassigned) [Compound 199], in the data set on HBV, the pEC50 is 7.93. This compound gave a CC50 at 6 days in data set [1] of 35900 nM.

As to `CCOC(=O)C1=C(CN2CC(F)(F)[C@@H]3C(=O)N(CC(C)(C)c4nn[nH]n4)C[C@@H]32)NC(c2nccs2)=N[C@H]1c1cccc(F)c1C` (single isomer, unassigned) [Compound 200], the pEC50 in the data set on HBV is 7.46. In data set [1], this compound yielded a CC50 at 6 days of 91300 nM.

Regarding `CCOC(=O)C1=C(CN2CC(F)(F)[C@@H]3CN(CC(C)(C)C(=O)O)C[C@@H]32)NC(c2nccs2)=N[C@@H]1c1ccc(F)nc1C` (single isomer, unassigned) [Compound 201, 3-((cis)-1-((5-(ethoxycarbonyl)-6-(6-fluoro-2-methylpyridin-3-yl)-2-(thiazol-2-yl)-3,6-dihydropyrimidin-4-yl)methyl)-3,3-difluorohexahydropyrrolo[3,4-b]pyrrol-5(1H)-yl)-2,2-dimethylpropanoic acid], in the data set on HBV, the pEC50 is 7.14. The same compound came in with a CC50 at 6 days in data set [1] above 100000 nM.

Consider `CCOC(=O)C1=C(CN2CC(F)(F)[C@@H]3C(=O)N(CC(CC)(CC)C(=O)O)C[C@@H]32)NC(c2nccs2)=N[C@H]1c1cccc(F)c1C` (single isomer, unassigned) [Compound 202], for which the pEC50 in the data set with HBV was 7.64. Besides, the CC50 at 6 days in data set [1] came to 100000 nM.

For `CCOC(=O)C1=C(CN2C[C@@H](F)[C@@]3(F)CN(CC(C)(C)C(=O)O)C(=O)[C@@H]23)NC(c2nccs2)=N[C@H]1c1cccc(F)c1C` (single isomer, unassigned) [Compound 203A], the pEC50 with HBV is 7.78. In data set [1], the CC50 at 6 days is 44600 nM.

`CCOC(=O)C1=C(CN2C[C@@H](F)[C@@]3(F)C(=O)N(CC(C)(C)C(=O)O)C[C@@H]23)NC(c2nccs2)=N[C@H]1c1cccc(F)c1C` (single isomer, unassigned) [Compound 204A]: the negative logarithm of the EC50 (pEC50) in the data set with HBV was 7.95. The compound further displayed a CC50 at 6 days in data set [1] of 88900 nM.

Regarding `CCOC(=O)C1=C(CN2C[C@H](F)[C@]3(F)C(=O)N(CC(C)(C)C(=O)O)C[C@H]23)NC(c2nccs2)=N[C@H]1c1cccc(F)c1C` (single isomer, unassigned) [Compound 204B], the pEC50 in the data set with HBV is 6.99. In data set [1], this compound came in with a CC50 at 6 days of 72100 nM.

Turning to `CCOC(=O)C1=C(CN2C[C@H](F)[C@@]3(F)C(=O)N(CC(C)(C)C(=O)O)C[C@@H]23)NC(c2nccs2)=N[C@H]1c1cccc(F)c1C` (single isomer, unassigned) [Compound 204C], in the data set with HBV, the pEC50 is 8.15. This compound returned a CC50 at 6 days in data set [1] of 36900 nM.

Consider `CCOC(=O)C1=C(CN2C[C@@H](F)[C@]3(F)C(=O)N(CC(C)(C)C(=O)O)C[C@H]23)NC(c2nccs2)=N[C@H]1c1cccc(F)c1C` (single isomer, unassigned) [Compound 204D], for which the pEC50 with HBV is 9.40. In data set [1], the CC50 at 6 days came out at 48100 nM.

Take `CCOC(=O)C1=C(CN2CC(F)(F)[C@@H]3CN(S(=O)(=O)[C@H]4C[C@](C)(C(=O)O)C4)C[C@@H]32)NC(c2nccs2)=N[C@H]1c1cccc(F)c1C` (single isomer, unassigned) [Compound 205A]: in the data set with HBV, the pEC50 is 6.94. The compound further came in with a CC50 at 6 days in data set [1] above 50000 nM.

Consider `CCOC(=O)C1=C(CN2CC(F)(F)[C@@H]3CN(S(=O)(=O)[C@H]4C[C@@](C)(C(=O)O)C4)C[C@@H]32)NC(c2nccs2)=N[C@H]1c1cccc(F)c1C` (single isomer, unassigned) [Compound 205B], for which the pEC50 in the data set on HBV is 6.99. In data set [1], this compound showed a CC50 at 6 days above 50000 nM.

For `COC(=O)C1=C(CN2CC(F)(F)[C@@H]3CN(C(=O)C(C)(C)C(=O)O)C[C@@H]32)NC(c2nccs2)=N[C@H]1c1cccc(F)c1Cl` (single isomer, unassigned) [Compound 206, 3-((cis)-1-((6-(2-chloro-3-fluorophenyl)-5-(methoxycarbonyl)-2-(thiazol-2-yl)-3,6-dihydropyrimidin-4-yl)methyl)-3,3-difluorohexahydropyrrolo[3,4-b]pyrrol-5(1H)-yl)-2,2-dimethyl-3-oxopropanoic acid], the pEC50 in the data set with HBV was 7.41. This compound yielded a CC50 at 6 days in data set [1] above 100000 nM.

With `CCOC(=O)C1=C(CN2CC(F)(F)[C@@H]3CN(C(=O)C(C)(C)C(=O)O)C[C@@H]32)NC(c2nccs2)=N[C@H]1c1cccc(F)c1Cl` (single isomer, unassigned) [Compound 207, 3-((cis)-1-((6-(2-chloro-3-fluorophenyl)-5-(ethoxycarbonyl)-2-(thiazol-2-yl)-3,6-dihydropyrimidin-4-yl)methyl)-3,3-difluorohexahydropyrrolo[3,4-b]pyrrol-5(1H)-yl)-2,2-dimethyl-3-oxopropanoic acid], the pEC50 in the data set with HBV is 7.23. Further, the CC50 at 6 days in data set [1] is above 50000 nM.

As for `COC(=O)C1=C(CN2CC(F)(F)[C@@H]3CN(C(=O)C(C)(C)C(=O)O)C[C@@H]32)NC(c2nccs2)=N[C@H]1c1ccc(F)cc1Cl` (single isomer, unassigned) [Compound 208, 3-((cis)-1-((6-(2-chloro-4-fluorophenyl)-5-(methoxycarbonyl)-2-(thiazol-2-yl)-3,6-dihydropyrimidin-4-yl)methyl)-3,3-difluorohexahydropyrrolo[3,4-b]pyrrol-5(1H)-yl)-2,2-dimethyl-3-oxopropanoic acid], in the data set with HBV, the pEC50 was 7.54. In data set [1], this compound registered a CC50 at 6 days above 100000 nM.

Turning to `COC(=O)C1=C(CN2CC[C@]3(F)C(=O)N(CC(C)(C)C(=O)O)C[C@H]23)NC(c2nccs2)=N[C@H]1c1ccc(F)c(F)c1Cl` (single isomer, unassigned) [Compound 209A, 3-((cis)-1-((6-(2-chloro-3,4-difluorophenyl)-5-(methoxycarbonyl)-2-(thiazol-2-yl)-3,6-dihydropyrimidin-4-yl)methyl)-3a-fluoro-4-oxohexahydropyrrolo[3,4-b]pyrrol-5(1H)-yl)-2,2-dimethylpropanoic acid], the pEC50 with HBV was 7.72. The compound further came in with a CC50 at 6 days in data set [1] of 23300 nM.

In the case of `CCOC(=O)C1=C(CN2CC[C@]3(F)C(=O)N(CCC(C)(C)C(=O)O)C[C@H]23)NC(c2nccs2)=N[C@H]1c1cccc(F)c1C` (single isomer, unassigned) [Compound 210B], the pEC50 in the data set on HBV was 7.01. Further, it took 48700 nM to reach half-maximal cytotoxicity in data set [1] (CC50 at 6 days).

Consider `CCOC(=O)C1=C(CN2CC(F)(F)C3C(=O)N(CC(C)(C)C(=O)O)C[C@@H]32)NC(c2nccs2)=N[C@@H]1c1ccc(Cl)c(F)c1` (single isomer, unassigned) [Compound 211, 3-((cis)-1-((6-(4-chloro-3-fluorophenyl)-5-(ethoxycarbonyl)-2-(thiazol-2-yl)-3,6-dihydropyrimidin-4-yl)methyl)-3,3-difluoro-4-oxohexahydropyrrolo[3,4-b]pyrrol-5(1H)-yl)-2,2-dimethylpropanoic acid], for which, in the data set with HBV, the pEC50 is 7.44. The CC50 at 6 days in data set [1] was above 50000 nM.

Consider `CCOC(=O)C1=C(CN2CCC3(F)C(=O)N(CC(C)(C)C(=O)O)CC23)NC(c2nccs2)=N[C@H]1c1cccc(F)c1C` (stereo in doubt) [Compound 3, 3-((cis)-1-(((S)-5-(ethoxycarbonyl)-6-(3-fluoro-2-methylphenyl)-2-(thiazol-2-yl)-3,6-dihydropyrimidin-4-yl)methyl)-3a-fluoro-4-oxohexahydropyrrolo[3,4-b]pyrrol-5(1H)-yl)-2,2-dimethylpropanoic acid], for which, in the data set with HBV, the pEC50 was 7.69. For the same compound, in data set [1], the CC50 at 6 days was 63100 nM.

As for `CCOC(=O)C1=C(CN2CC(F)(F)C3C2CCN3CC(=O)O)NC(c2nccs2)=N[C@H]1c1cccc(F)c1C` (stereo in doubt) [Compound 6, 2-((cis)-4-(((S)-5-(ethoxycarbonyl)-6-(3-fluoro-2-methylphenyl)-2-(thiazol-2-yl)-3,6-dihydropyrimidin-4-yl)methyl)-6,6-difluorohexahydropyrrolo-[3,2-b]pyrrol-1(2H)-yl)acetic acid], in the data set with HBV, the pEC50 is 7.98. Besides, the CC50 at 6 days in data set [1] was determined as 37200 nM.
